Results: US20260250250A1, “3-(SULPHONYL OR SULFONIMIDOYL)PROP-2-EN-1-YL]-2-OXO-1,2-DIHYDROPYRIDINE-3-CARBOXAMIDE DERIVATIVES” (Flinder Therapeutics B.V., priority 2022, published 2026)

Key:
[1] = target: T1, human E3 ubiquitin-protein ligase RNF31 (HOIP) (Homo sapiens, UniProt Q96EP0); test: Cell-free HTRF-based HOIP inhibition assay; assay type: biochemical
T1 sequence (Q96EP0 695-1072 limits assumed): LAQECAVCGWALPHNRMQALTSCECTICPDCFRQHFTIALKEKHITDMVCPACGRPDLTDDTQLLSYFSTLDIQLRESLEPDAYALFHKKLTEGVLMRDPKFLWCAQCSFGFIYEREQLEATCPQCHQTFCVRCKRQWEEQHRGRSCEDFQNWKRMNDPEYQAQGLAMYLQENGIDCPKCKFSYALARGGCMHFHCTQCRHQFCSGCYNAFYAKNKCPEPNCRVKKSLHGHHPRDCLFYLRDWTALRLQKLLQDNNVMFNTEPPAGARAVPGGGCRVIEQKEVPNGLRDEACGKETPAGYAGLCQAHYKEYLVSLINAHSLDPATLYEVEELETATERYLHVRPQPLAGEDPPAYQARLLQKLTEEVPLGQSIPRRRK
Experimental: This assay was performed in the following steps: • a) synthesis of recombinant fragment of human E3 ubiquitin-protein ligase RNF31 (HOIP), expressed with purity >90% in E. coli system (the protein was prepared as 1 mg/mL stock in a standard formulation); • b) incubation of the compounds in a typical concentration range: 100-0.005 μM, at a final DMSO conc. 1% with a mixture of HOIP and ubiquitin activating enzyme E1 at 25° C., for 1 h at 25° C.; • c) followed by addition of a ubiquitination solution including E2 and substrates (the reaction proceeds for 2.5 h at 25° C.); and • d) HTRF detection was performed using a PHERAstar FSX (BMG Labtech) plate reader (excitation at 337 nm, dual emissions at 665 and 620 nm).

[2] = system: bladder carcinoma RT4 cell line; test: TNF-α-induced cytotoxicity assay (CellTiter-Glo viability); assay type: cell-based; conditions: Homo sapiens, RT-4, 72 h
Experimental: A viability assay, using bladder carcinoma RT4 cell line, was used for identifying the potential inhibitory effect of tested compounds on HOIP activity. The viability was determined by CellTiter-Glo Luminescent Cell Viability Assay (G7571, Promega) which measures the ability of generating a luminescent signal proportional to the amount of ATP present in living cells. The assay consists of a few steps: • a) the cells were routinely sub cultivated twice a week with standard complete growth medium composition; • b) cells were preparated for the assay by creating a cell suspension at the density of 0.05 mln cells/mL and dispensed into plates (ViewPlate-384, PerkinElmer) resulting in 1000 cells/well; • c) cells were stimulated with 1.25 ng/mL TNFα and with compounds and incubated for 72 h at 37° C. in the atmosphere with 5% CO2; and • d) for detection cytotoxicity was measured with CellTiter-Glo® Luminescent Cell Viability Assay based on the method described by the manufacturer.

| IC50 [1] [µM] | SMILES | IC50 [2] [µM] |
| --- | --- | --- |
| ≤ 100 | CC(/C=C/S(=O)(=O)c1ccccc1)NC(=O)c1cc2c([nH]c1=O)CCCC2 (stereo not shown) [Example 14, N-[(3E)-4-(benzenesulfonyl)but-3-en-2-yl]-2-oxo-1,2,5,6,7,8-hexahydroquinoline-3-carboxamide] |  |
| ≤ 10 | N#CC1(C(=O)N2CCc3[nH]c(=O)c(C(=O)NC/C=C/S(=O)(=O)c4ccccc4)cc3C2)CCC1 [Example 111, N-[(2E)-3-(benzenesulfonyl)prop-2-en-1-yl]-6-(1-cyanocyclobutanecarbonyl)-2-oxo-1,2,5,6,7,8-hexahydro-1,6-naphthyridine-3-carboxamide] |  |
| ≤ 0.1 | N=S(=O)(/C=C/CNC(=O)c1cc2c([nH]c1=O)CCCC2)c1ccc(OC2CC2)cc1 (stereo not shown) [Example 164, N-[(2E)-3-[(4-cyclopropoxyphenyl)(imino)oxo-λ^6-sulfanyl]prop-2-en-1-yl]-2-oxo-1,2,5,6,7,8-hexahydroquinoline-3-carboxamide] | ≤ 1 |
| ≤ 10 | COc1ccc(S(=O)(=O)/C=C/CNC(=O)c2cc3c([nH]c2=O)CCCCC3)cc1F [Example 37, N-[(2E)-3-(3-fluoro-4-methoxybenzenesulfonyl)prop-2-en-1-yl]-2-oxo-1H,2H,5H,6H,7H,8H,9H-cyclohepta[b]pyridine-3-carboxamide] |  |
| ≤ 0.1 | COc1ccc(S(=N)(=O)/C=C/CNC(=O)c2cc3c([nH]c2=O)CCN(C(=O)OC2CCC(F)(F)CC2)C3)cc1F (stereo not shown) [Example 183, 4,4-difluorocyclohexyl 3-{[(2E)-3-[(3-fluoro-4-methoxyphenyl) (imino)oxo-λ^6-sulfanyl]prop-2-en-1-yl]carbamoyl}-2-oxo-1,2,5,6,7,8-hexahydro-1,6-naphthyridine-6-carboxylate] | ≤ 10 |
| ≤ 10 | CC(=O)N1CCc2[nH]c(=O)c(C(=O)NC/C=C/S(=O)(=O)c3ccccc3)cc2C1 [Example 13, 6-acetyl-N-[(2E)-3-(benzenesulfonyl)prop-2-en-1-yl]-2-oxo-1,2,5,6,7,8-hexahydro-1,6-naphthyridine-3-carboxamide] |  |
| ≤ 1 | CN(C)c1cccc(S(=N)(=O)/C=C/CNC(=O)c2cc3c([nH]c2=O)CCCC3)c1 (stereo not shown) [Example 165, N-[(2E)-3-{[3-(dimethylamino)phenyl](imino)oxo-λ^6-sulfanyl}prop-2-en-1-yl]-2-oxo-1,2,5,6,7,8-hexahydroquinoline-3-carboxamide] | ≤ 1 |
| ≤ 10 | O=C(NC/C=C/S(=O)(=O)c1ccc(Cl)cc1)c1cc(-c2ccccc2)c[nH]c1=O [Example 130, N-[(2E)-3-(4-chlorobenzenesulfonyl)prop-2-en-1-yl]-2-oxo-5-phenyl-1,2-dihydropyridine-3-carboxamide] |  |
| ≤ 10 | O=C(NC/C=C/S(=O)(=O)c1ccccc1)c1cc2c([nH]c1=O)CCN(C(=O)C1CC(F)(F)C1)C2 [Example 102, N-[(2E)-3-(benzenesulfonyl)prop-2-en-1-yl]-6-(3,3-difluorocyclobutanecarbonyl)-2-oxo-1,2,5,6,7,8-hexahydro-1,6-naphthyridine-3-carboxamide] |  |
| ≤ 1 | N=S(=O)(/C=C/CNC(=O)c1cc2c([nH]c1=O)CCCC2)c1ccc(N2CCCCC2=O)cc1 (stereo not shown) [Example 176, N-[(2E)-3-[imino(oxo)[4-(2-oxopiperidin-1-yl)phenyl]-λ^6-sulfanyl]prop-2-en-1-yl]-2-oxo-1,2,5,6,7,8-hexahydroquinoline-3-carboxamide] |  |
| ≤ 1 | COc1ccc(S(=N)(=O)/C=C/CNC(=O)c2cc3cccnc3[nH]c2=O)cc1F (stereo not shown) [Example 158, N-[(2E)-3-[(3-fluoro-4-methoxyphenyl)(imino)oxo-λ^6-sulfanyl]prop-2-en-1-yl]-2-oxo-1,2-dihydro-1,8-naphthyridine-3-carboxamide] | ≤ 10 |
| ≤ 1 | COc1ccc(S(=N)(=O)/C=C/CNC(=O)c2cc3c([nH]c2=O)CCC(F)C3)cc1F (stereo not shown) [Example 172, 6-fluoro-N-[(2E)-3-[(3-fluoro-4-methoxyphenyl)(imino)oxo-λ^6-sulfanyl]prop-2-en-1-yl]-2-oxo-1,2,5,6,7,8-hexahydroquinoline-3-carboxamide] | ≤ 10 |
| ≤ 1 | O=C(NC/C=C/S(=O)(=O)c1ccccc1)c1cc2c([nH]c1=O)CCN(C(=O)C1CCN(c3ccccc3)C1)C2 (stereo not shown) [Example 118, N-[(2E)-3-(benzenesulfonyl)prop-2-en-1-yl]-2-oxo-6-(1-phenylpyrrolidine-3-carbonyl)-1,2,5,6,7,8-hexahydro-1,6-naphthyridine-3-carboxamide] |  |
| ≤ 10 | CC(C)S(=O)(=O)/C=C/CNC(=O)c1cc2c([nH]c1=O)CCCC2 [Example 18, 2-oxo-N-[(2E)-3-(propane-2-sulfonyl)prop-2-en-1-yl]-1,2,5,6,7,8-hexahydroquinoline-3-carboxamide] |  |
| ≤ 10 | O=C(NC/C=C/S(=O)(=O)C1CCCC1)c1cc2c([nH]c1=O)CCCC2 [Example 17, N-[(2E)-3-(cyclopentanesulfonyl)prop-2-en-1-yl]-2-oxo-1,2,5,6,7,8-hexahydroquinoline-3-carboxamide] |  |
| ≤ 100 | CC(C)(C)S(=O)(=O)/C=C/CNC(=O)c1cc2c([nH]c1=O)CCCC2 [Example 23, N-[(2E)-3-(2-methylpropane-2-sulfonyl)prop-2-en-1-yl]-2-oxo-1,2,5,6,7,8-hexahydroquinoline-3-carboxamide] |  |
| ≤ 10 | CS(=O)(=O)/C=C/CNC(=O)c1cc2c([nH]c1=O)CCCC2 [Example 15, N-[(2E)-3-methanesulfonylprop-2-en-1-yl]-2-oxo-1,2,5,6,7,8-hexahydroquinoline-3-carboxamide] |  |
| ≤ 100 | CC(C)S(=O)(=O)/C=C\CNC(=O)c1cc2c([nH]c1=O)CCCC2 [Example 20, 2-oxo-N-[(2Z)-3-(propane-2-sulfonyl)prop-2-en-1-yl]-1,2,5,6,7,8-hexahydroquinoline-3-carboxamide] |  |
| ≤ 10 | N=S(=O)(/C=C/CNC(=O)c1cc2c([nH]c1=O)CCCC2)Cc1ccccc1 (stereo not shown) [Example 157, N-[(2E)-3-[benzyl(imino)oxo-λ^6-sulfanyl]prop-2-en-1-yl]-2-oxo-1,2,5,6,7,8-hexahydroquinoline-3-carboxamide] |  |
| ≤ 10 | O=C(NC/C=C/S(=O)(=O)c1ccccc1)c1cc2c([nH]c1=O)CCN(C(=O)C1CCC(F)(F)CC1)C2 [Example 108, N-[(2E)-3-(benzenesulfonyl)prop-2-en-1-yl]-6-(4,4-difluorocyclohexanecarbonyl)-2-oxo-1,2,5,6,7,8-hexahydro-1,6-naphthyridine-3-carboxamide] |  |
| ≤ 1 | COCCC(=O)N1CCc2[nH]c(=O)c(C(=O)NC/C=C/S(=O)(=O)c3ccccc3)cc2C1 [Example 105, N-[(2E)-3-(benzenesulfonyl)prop-2-en-1-yl]-6-(3-methoxypropanoyl)-2-oxo-1,2,5,6,7,8-hexahydro-1,6-naphthyridine-3-carboxamide] |  |
| ≤ 10 | COC(C)(C)CC(=O)N1CCc2[nH]c(=O)c(C(=O)NC/C=C/S(=O)(=O)c3ccccc3)cc2C1 [Example 124, N-[(2E)-3-(benzenesulfonyl)prop-2-en-1-yl]-6-(3-methoxy-3-methylbutanoyl)-2-oxo-1,2,5,6,7,8-hexahydro-1,6-naphthyridine-3-carboxamide] |  |
|  | N=S(=O)(/C=C/CNC(=O)c1cc2c([nH]c1=O)CCCC2)c1ccc(N2CCCCC2)cc1 (stereo not shown) [Example 161, N-[(2E)-3-[imino(oxo)[4-(piperidin-1-yl)phenyl]-λ^6-sulfanyl]prop-2-en-1-yl]-2-oxo-1,2,5,6,7,8-hexahydroquinoline-3-carboxamide] | ≤ 1 |
